Results published in PubChem BioAssay (NCI).
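Here, GI50 denotes the concentration required for 50% inhibition of growth. The concentration for full growth arrest is given as TGI.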

What was measured:
Experiment in all cases: DTP human tumour cell line panel, 384-well format
SNB-19 CNS = system: SNB-19 CNS
OVCAR-3 ovarian = system: OVCAR-3 ovarian
UACC-62 melanoma = system: UACC-62 melanoma
MOLT-4 leukemia = system: MOLT-4 leukemia
MALME-3M melanoma = system: MALME-3M melanoma
SK-MEL-28 melanoma = system: SK-MEL-28 melanoma
SK-MEL-5 melanoma = system: SK-MEL-5 melanoma
T-47D breast = system: T-47D breast
KM12 colon = system: KM12 colon
HS 578T breast = system: HS 578T breast
DU-145 prostate = system: DU-145 prostate
NCI-H226 lung = system: NCI-H226 lung
IGROV1 ovarian = system: IGROV1 ovarian
SF-539 CNS = system: SF-539 CNS
K-562 leukemia = system: K-562 leukemia
786-0 renal = system: 786-0 renal
ACHN renal = system: ACHN renal
NCI-H23 lung = system: NCI-H23 lung
LOX IMVI melanoma = system: LOX IMVI melanoma
MCF7 breast = system: MCF7 breast
UO-31 renal = system: UO-31 renal
MDA-MB-468 breast = system: MDA-MB-468 breast
TK-10 renal = system: TK-10 renal
SN12C renal = system: SN12C renal
SNB-75 CNS = system: SNB-75 CNS
OVCAR-5 ovarian = system: OVCAR-5 ovarian
SK-OV-3 ovarian = system: SK-OV-3 ovarian
U251 glioblastoma = system: U251 glioblastoma
RXF 393 renal = system: RXF 393 renal
UACC-257 melanoma = system: UACC-257 melanoma
PC-3 prostate = system: PC-3 prostate
COLO 205 colon = system: COLO 205 colon
SW-620 colon = system: SW-620 colon
OVCAR-8 ovarian = system: OVCAR-8 ovarian
EKVX NSCLC = system: EKVX NSCLC
NCI-H460 NSCLC = system: NCI-H460 NSCLC
NCI/ADR-RES ovarian = system: NCI/ADR-RES ovarian
M14 melanoma = system: M14 melanoma
A498 renal = system: A498 renal
HL-60(TB) leukemia = system: HL-60(TB) leukemia
SF-295 CNS = system: SF-295 CNS
HCT-15 colon = system: HCT-15 colon
HOP-92 NSCLC = system: HOP-92 NSCLC
RPMI-8226 leukemia = system: RPMI-8226 leukemia
HCC-2998 colon = system: HCC-2998 colon
HCT-116 colon = system: HCT-116 colon
A549 NSCLC = system: A549 NSCLC
BT-549 breast = system: BT-549 breast
CAKI-1 renal = system: CAKI-1 renal
NCI-H322M lung = system: NCI-H322M lung
CCRF-CEM leukemia = system: CCRF-CEM leukemia
NCI-H522 lung = system: NCI-H522 lung
HT29 colon = system: HT29 colon
SF-268 CNS = system: SF-268 CNS
HOP-62 NSCLC = system: HOP-62 NSCLC
OVCAR-4 ovarian = system: OVCAR-4 ovarian
MDA-MB-435 melanoma = system: MDA-MB-435 melanoma
MDA-MB-231 breast = system: MDA-MB-231 breast

SMILES: CN[C@@H](C)C(=O)N[C@H]1CN(C(=O)CC(C)C)CC[C@H]2CC[C@@H](C(=O)NC(c3ccccc3)c3ccccc3)N2C1=O
- GI50 (SNB-19 CNS): > 100 µM
- TGI (SNB-19 CNS): > 100 µM
- GI50 (OVCAR-3 ovarian): > 100 µM
- TGI (OVCAR-3 ovarian): > 100 µM
- GI50 (UACC-62 melanoma): > 100 µM
- TGI (UACC-62 melanoma): > 100 µM
- GI50 (MOLT-4 leukemia): 35.1 µM
- TGI (MOLT-4 leukemia): > 100 µM
- GI50 (MALME-3M melanoma): 0.542 µM
- TGI (MALME-3M melanoma): 11 µM
- GI50 (SK-MEL-28 melanoma): > 100 µM
- TGI (SK-MEL-28 melanoma): > 100 µM
- GI50 (SK-MEL-5 melanoma): 3.63 µM
- TGI (SK-MEL-5 melanoma): 21.8 µM
- GI50 (T-47D breast): > 100 µM
- TGI (T-47D breast): > 100 µM
- GI50 (KM12 colon): > 100 µM
- TGI (KM12 colon): > 100 µM
- GI50 (HS 578T breast): 16.4 µM
- TGI (HS 578T breast): > 100 µM
- GI50 (DU-145 prostate): > 100 µM
- TGI (DU-145 prostate): > 100 µM
- GI50 (NCI-H226 lung): > 100 µM
- TGI (NCI-H226 lung): > 100 µM
- GI50 (IGROV1 ovarian): > 100 µM
- TGI (IGROV1 ovarian): > 100 µM
- GI50 (SF-539 CNS): > 100 µM
- TGI (SF-539 CNS): > 100 µM
- GI50 (K-562 leukemia): 56.6 µM
- TGI (K-562 leukemia): > 100 µM
- GI50 ([…]-0 renal): > 100 µM
- TGI (786-0 renal): > 100 µM
- GI50 (ACHN renal): > 100 µM
- TGI (ACHN renal): > 100 µM
- GI50 (NCI-H23 lung): 49 µM
- TGI (NCI-H23 lung): > 100 µM
- GI50 (LOX IMVI melanoma): > 100 µM
- TGI (LOX IMVI melanoma): > 100 µM
- GI50 (MCF7 breast): 83.8 µM
- TGI (MCF7 breast): > 100 µM
- GI50 (UO-31 renal): > 100 µM
- TGI (UO-31 renal): > 100 µM
- GI50 (MDA-MB-468 breast): 2.78 µM
- TGI (MDA-MB-468 breast): 72.1 µM
- GI50 (TK-10 renal): > 100 µM
- TGI (TK-10 renal): > 100 µM
- GI50 (SN12C renal): > 100 µM
- TGI (SN12C renal): > 100 µM
- GI50 (SNB-75 CNS): 49.9 µM
- TGI (SNB-75 CNS): > 100 µM
- GI50 (OVCAR-5 ovarian): > 100 µM
- TGI (OVCAR-5 ovarian): > 100 µM
- GI50 (SK-OV-3 ovarian): 0.357 µM
- TGI (SK-OV-3 ovarian): 9.16 µM
- GI50 (U251 glioblastoma): > 100 µM
- TGI (U251 glioblastoma): > 100 µM
- GI50 (RXF 393 renal): 0.823 µM
- TGI (RXF 393 renal): 20 µM
- GI50 (UACC-257 melanoma): 24.7 µM
- TGI (UACC-257 melanoma): 55 µM
- GI50 (PC-3 prostate): > 100 µM
- TGI (PC-3 prostate): > 100 µM
- GI50 (COLO 205 colon): > 100 µM
- TGI (COLO 205 colon): > 100 µM
- GI50 (SW-620 colon): > 100 µM
- TGI (SW-620 colon): > 100 µM
- GI50 (OVCAR-8 ovarian): 68.8 µM
- TGI (OVCAR-8 ovarian): > 100 µM
- GI50 (EKVX NSCLC): > 100 µM
- TGI (EKVX NSCLC): > 100 µM
- GI50 (NCI-H460 NSCLC): > 100 µM
- TGI (NCI-H460 NSCLC): > 100 µM
- GI50 (NCI/ADR-RES ovarian): > 100 µM
- TGI (NCI/ADR-RES ovarian): > 100 µM
- GI50 (M14 melanoma): > 100 µM
- TGI (M14 melanoma): > 100 µM
- GI50 (A498 renal): > 100 µM
- TGI (A498 renal): > 100 µM
- GI50 (HL-60(TB) leukemia): 1.56 µM
- TGI (HL-60(TB) leukemia): 12.1 µM
- GI50 (SF-295 CNS): > 100 µM
- TGI (SF-295 CNS): > 100 µM
- GI50 (HCT-15 colon): > 100 µM
- TGI (HCT-15 colon): > 100 µM
- GI50 (HOP-92 NSCLC): 13.8 µM
- TGI (HOP-92 NSCLC): 50.7 µM
- GI50 (RPMI-8226 leukemia): 24.4 µM
- TGI (RPMI-8226 leukemia): > 100 µM
- GI50 (HCC-2998 colon): 12.5 µM
- TGI (HCC-2998 colon): > 100 µM
- GI50 (HCT-116 colon): > 100 µM
- TGI (HCT-116 colon): > 100 µM
- GI50 (A549 NSCLC): > 100 µM
- TGI (A549 NSCLC): > 100 µM
- GI50 (BT-549 breast): 21.8 µM
- TGI (BT-549 breast): > 100 µM
- GI50 (CAKI-1 renal): > 100 µM
- TGI (CAKI-1 renal): > 100 µM
- GI50 (NCI-H322M lung): > 100 µM
- TGI (NCI-H322M lung): > 100 µM
- GI50 (CCRF-CEM leukemia): 15.8 µM
- TGI (CCRF-CEM leukemia): > 100 µM
- GI50 (NCI-H522 lung): 5.58 µM
- TGI (NCI-H522 lung): > 100 µM
- GI50 (HT29 colon): 39.8 µM
- TGI (HT29 colon): > 100 µM
- GI50 (SF-268 CNS): > 100 µM
- TGI (SF-268 CNS): > 100 µM
- GI50 (HOP-62 NSCLC): 4.4 µM
- TGI (HOP-62 NSCLC): > 100 µM
- GI50 (OVCAR-4 ovarian): 0.167 µM
- TGI (OVCAR-4 ovarian): 1.05 µM

SMILES: Cc1cccc(-c2nn3c(c2-c2ccnc4ccc(C(N)=O)cc24)CCC3)n1
- GI50 (OVCAR-3 ovarian): 2.15 µM
- TGI (OVCAR-3 ovarian): 3.96 µM
- GI50 (MALME-3M melanoma): 5.57 µM
- TGI (MALME-3M melanoma): 16.4 µM
- GI50 (SK-MEL-28 melanoma): 6.9 µM
- TGI (SK-MEL-28 melanoma): 19.7 µM
- GI50 (SK-MEL-5 melanoma): 2.55 µM
- TGI (SK-MEL-5 melanoma): 6.56 µM
- GI50 (T-47D breast): 3.64 µM
- TGI (T-47D breast): 16.8 µM
- GI50 (KM12 colon): 2.47 µM
- TGI (KM12 colon): 6.04 µM
- GI50 (HS 578T breast): 1.74 µM
- TGI (HS 578T breast): 3.65 µM
- GI50 (SF-539 CNS): 2.44 µM
- TGI (SF-539 CNS): 5.39 µM
- GI50 (LOX IMVI melanoma): 2.77 µM
- TGI (LOX IMVI melanoma): 7.47 µM
- GI50 (SNB-75 CNS): 2.52 µM
- TGI (SNB-75 CNS): 11.3 µM
- GI50 (SK-OV-3 ovarian): 3.17 µM
- TGI (SK-OV-3 ovarian): 10.4 µM
- GI50 (MDA-MB-435 melanoma): 1.95 µM
- TGI (MDA-MB-435 melanoma): 3.83 µM
- GI50 (U251 glioblastoma): 2.65 µM
- TGI (U251 glioblastoma): 8.58 µM
- GI50 (RXF 393 renal): 2.02 µM
- TGI (RXF 393 renal): 4.6 µM
- GI50 (UACC-257 melanoma): 6.22 µM
- TGI (UACC-257 melanoma): 19.7 µM
- GI50 (PC-3 prostate): 3.64 µM
- TGI (PC-3 prostate): 11.8 µM
- GI50 (SW-620 colon): 5.1 µM
- TGI (SW-620 colon): 15.6 µM
- GI50 (EKVX NSCLC): 3.92 µM
- TGI (EKVX NSCLC): 12.8 µM
- GI50 (NCI-H460 NSCLC): 2.37 µM
- TGI (NCI-H460 NSCLC): 5.92 µM
- GI50 (NCI/ADR-RES ovarian): 2.17 µM
- TGI (NCI/ADR-RES ovarian): 4.48 µM
- GI50 (A498 renal): 3.34 µM
- TGI (A498 renal): 12 µM
- GI50 (HL-60(TB) leukemia): 2.08 µM
- TGI (HL-60(TB) leukemia): 3.57 µM
- GI50 (MDA-MB-231 breast): 4.81 µM
- TGI (MDA-MB-231 breast): 16.6 µM
- GI50 (HCT-15 colon): 2.97 µM
- TGI (HCT-15 colon): 10.6 µM
- GI50 (RPMI-8226 leukemia): 1.74 µM
- TGI (RPMI-8226 leukemia): 3.13 µM
- GI50 (HCC-2998 colon): 3.78 µM
- TGI (HCC-2998 colon): 13.2 µM
- GI50 (HCT-116 colon): 3.65 µM
- TGI (HCT-116 colon): 12.3 µM
- GI50 (A549 NSCLC): 3.93 µM
- TGI (A549 NSCLC): 14.3 µM
- GI50 (BT-549 breast): 2.41 µM
- TGI (BT-549 breast): 5.7 µM
- GI50 (CAKI-1 renal): 3.9 µM
- TGI (CAKI-1 renal): 14.1 µM
- GI50 (NCI-H322M lung): 3.86 µM
- TGI (NCI-H322M lung): 16.6 µM
- GI50 (NCI-H522 lung): 1.8 µM
- TGI (NCI-H522 lung): 4.1 µM
- GI50 (HT29 colon): 2.37 µM
- TGI (HT29 colon): 6.01 µM
- GI50 (SF-268 CNS): 3.05 µM
- TGI (SF-268 CNS): 9.5 µM
